According to patent US20250195521A1 (Revolution Medicines, Inc., priority 2020, published 2025):
Several values for one entry are separate records, joined by “and”; a condition that tells them apart may be missing. Equal values may be shown once. Read-outs that look alike come from different tables or passages of the source.

Assays:
[1] = system: NCI-H358 (K-Ras G12C); test: CellTiter-Glo cell viability assay, NCI-H358; assay type: cell-based, human
Summary of the method: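 NCI-H358 (K-Ras G12C) cells treated with compound dispensed directly into plates. CellTiter-Glo luminescence read on day 5 after ~30 min equilibration to room temperature. Signal normalised to DMSO average ×100, then fitted with a four-parameter logistic model.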

[2] = biological target: K-Ras G12C(GMP-PNP) binding to BRAF RBD (Homo sapiens (Human), UniProt P01116+P62937, G12C); test: Disruption of BRAF RBD interaction with K-Ras (FRET / MOA assay), K-Ras G12C; assay type: biochemical; details: read-out: KRAS G12C FRET IC50
Source text: Note—The following protocol describes a procedure for monitoring disruption of K-Ras G12C(GMP-PNP) binding to BRAF^RBD by a compound of the invention. This protocol may also be executed substituting other Ras proteins or nucleotides.
The purpose of this biochemical assay was to measure the ability of test compounds to facilitate ternary complex formation between a nucleotide-loaded K-Ras isoform and Cyclophilin A; the resulting ternary complex disrupts binding to a BRAF^RBD construct, inhibiting K-Ras signaling through a RAF effector. Data is reported as IC50 values.
Compound was present in plate wells as a 10-point 3-fold dilution series starting at a final concentration of 30 μM. After incubation at 25° C. for 3 hours, a mixture of Anti-His Eu—W1024 and anti-GST allophycocyanin was then added to assay sample wells at final concentrations of 10 nM and 50 nM, respectively, and the reaction incubated for an additional 1.5 hours. […] Compounds that facilitate disruption of a K-Ras: RAF complex were identified as those eliciting a decrease in the TR-FRET ratio relative to DMSO control wells.

[3] = system: K-Ras G12C (NCI-H358 cells); test: Potency assay: pERK in NCI-H358 cells; assay type: cell-based, human; details: read-out: pERK EC50 (H358 KRAS G12C)
Summary of the method: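 Cells plated the day before were exposed for 4 h at 37° C, 5% CO2 to a 10-point, 3-fold DMSO dilution series (10 mM top stock), in duplicate. Phospho-ERK was read by AlphaLISA SureFire Ultra or by In-Cell Western with DRAQ5 DNA stain, and IC50 came from a 4-parameter sigmoidal fit.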

[4] = system: Capan-1 cells (K-Ras G12V); test: CellTiter-Glo cell viability, Capan-1; assay type: cell-based, human; details: Homo sapiens, CAPAN-1, 120 h, K-Ras G12V, 5-day treatment; read-out: Capan-1 Cell Viability IC50
Summary of the method: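 Compounds dispensed directly onto seeded cells; on day 5 plates equilibrated ~30 min to room temperature and luminescence read. Signal normalized to DMSO average (%) and fitted by four-parameter logistic.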

[5] = biological target: KRAS G12D (Homo sapiens (Human), UniProt P01116+P62937, G12D); test: Ras-Raf disruption/FRET/MOA assay (BRAF RBD, Cyclophilin A); assay type: biochemical; details: read-out: KRAS G12D FRET IC50
Summary of the method: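 TR-FRET read after 1.5 h with 10 nM anti-His Eu-W1024 and 50 nM anti-GST APC, following 3 h at 25 °C of GMPPNP-loaded His6-Ras (12.5 nM), GST-BRAF RBD (50 nM) and Cyclophilin A (25 μM) with compound from 30 μM final, 10 points, 3-fold. IC50 reported; pH 7.3 HEPES, 100 mM NaCl.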

[6] = Homo sapiens, NCI-H358, 120 h, 5-day treatment, read-out: H358 Cell Viability assay data (K-Ras G12C, IC50)
[7] = Homo sapiens, NCI-H358 cells, 4 hours

K-Ras G12C(GMP-PNP) binding to BRAF RBD, sequence (P01116 other isoform, or with tags, fused parts or gaps G12C): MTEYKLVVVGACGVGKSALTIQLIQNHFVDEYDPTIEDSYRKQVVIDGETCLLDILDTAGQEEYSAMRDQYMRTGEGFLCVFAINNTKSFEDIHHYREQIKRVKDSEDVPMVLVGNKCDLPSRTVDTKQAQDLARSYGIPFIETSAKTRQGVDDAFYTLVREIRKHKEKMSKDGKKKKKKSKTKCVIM
K-Ras G12C(GMP-PNP) binding to BRAF RBD, sequence (P62937 whole entry): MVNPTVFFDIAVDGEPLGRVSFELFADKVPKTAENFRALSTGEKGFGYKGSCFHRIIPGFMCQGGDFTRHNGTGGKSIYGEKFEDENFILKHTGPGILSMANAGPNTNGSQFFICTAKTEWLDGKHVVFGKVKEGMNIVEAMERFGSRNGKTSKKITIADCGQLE
KRAS G12D, sequence (P01116 other isoform, or with tags, fused parts or gaps G12D): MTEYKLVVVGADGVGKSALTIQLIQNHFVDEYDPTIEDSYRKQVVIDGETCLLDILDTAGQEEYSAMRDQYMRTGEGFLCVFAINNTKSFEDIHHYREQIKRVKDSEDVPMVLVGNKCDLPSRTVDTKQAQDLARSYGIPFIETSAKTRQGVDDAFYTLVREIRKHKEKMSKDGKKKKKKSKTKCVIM
KRAS G12D, sequence (P62937 whole entry): as the sequence (P62937 whole entry) above

IC50 [1, 6] [µM] | IC50 [2] | EC50 [3, 7] [nM] | Structure (SMILES) | further results
0.01 to 0.1 | 100 to 1000 nM |  | CCn1c(-c2cccnc2[C@H](C)OC)c2c3cc(ccc31)-c1csc(n1)C[C@H](NC(=O)[C@H](C(C)C)N(C)C(=O)N1CC([C@@H](C)CO)C1)C(=O)N1CCC[C@H](N1)C(=O)OCC(C)(C)C2 (single isomer, unassigned) [Compound A487] | 
0.1 to 1 | 100 to 1000 nM | < 5000 | CCn1c(-c2cccnc2[C@H](C)OC)c2c3cc(ccc31)-c1cc(O)cc(c1)C[C@H](NC(=O)[C@H](C(C)C)N(C)C(=O)[C@H]1CCN(C(=O)OC(C)C)C1)C(=O)N1CCC[C@H](N1)C(=O)OCC(C)(C)C2 [Compound A117] | 
0.01 to 0.1 | 100 to 1000 nM |  | CCn1c(-c2cccnc2[C@H](C)OC)c2c3cc(ccc31)-c1csc(n1)C[C@H](NC(=O)[C@H](C(C)C)N(C)C(=O)[C@@H]1OCC[C@@H]1C)C(=O)N1CCC[C@H](N1)C(=O)OCC(C)(C)C2 [Compound A143] | 
0.1 to 1 | 100 to 1000 nM |  | CCn1c(-c2cccnc2[C@H](C)OC)c2c3cc(ccc31)-c1cc(O)cc(c1)C[C@H](NC(=O)[C@H](C(C)C)N(C)C(=O)[C@H]1C[C@H]1C)C(=O)N1CCC[C@H](N1)C(=O)OCC(C)(C)C2 [Compound A146] | 
0.01 to 0.1 | 10 to 100 nM | < 5000 | CCn1c(-c2cccnc2[C@H](C)OC)c2c3cc(ccc31)-c1nc(cs1)C[C@H](NC(=O)[C@H](C(C)C)N(C)C(C)=O)C(=O)N1CCC[C@H](N1)C(=O)OCC(C)(C)C2 [Compound A152] | 
0.1 to 1 | 1000 to 10000 nM | < 5000 | CCn1c(-c2cccnc2[C@H](C)OC)c2c3cc(ccc31)-c1cc(O)cc(c1)C[C@H](NC(=O)[C@H](C(C)C)N(C)C(=O)N1CC(N(C)C)C1)C(=O)N1CCC[C@H](N1)C(=O)OCC(C)(C)C2 [Compound A171] | 
0.01 to 0.1 | 10 to 100 nM | < 5000 | CCn1c(-c2cccnc2[C@H](C)OC)c2c3cc(ccc31)-c1cc(O)cc(c1)C[C@H](NC(=O)[C@@H](NC(C)=O)C(C)(C)OC)C(=O)N1CCC[C@H](N1)C(=O)OCC(C)(C)C2 [Compound A172] | 
 | 100 to 1000 nM and > 10000 nM | < 5000 | C=CC(=O)N1CC[C@]2(CCCN([C@H](C(=O)N[C@H]3Cc4cc(O)cc(c4)-c4ccc5c(c4)c(c(-c4ccccc4CCOC)n5CC)CC(C)(C)COC(=O)[C@@H]4CCCN(N4)C3=O)C(C)C)C2)C1 [Compound A217] | 
> 10 | 1000 to 10000 nM |  | CCn1c(-c2cccnc2[C@H](C)OC)c2c3cc(ccc31)-c1cc(O)cc(c1)C[C@H](NC(=O)[C@H](C(C)C)N(C)C(=O)C1NCCC13CC3)C(=O)N1CCC[C@H](N1)C(=O)OCC(C)(C)C2 (some centres unmarked) [Compound A228] | 
0.01 to 0.1 | 10 to 100 nM |  | CCn1c(-c2cccnc2[C@H](C)OC)c2c3cc(ccc31)-c1csc(n1)C[C@H](NC(=O)[C@H](C(C)C)N(C)C(=O)[C@H]1CCCO1)C(=O)N1CCC[C@H](N1)C(=O)OCC(C)(C)C2 [Compound A238] | 
0.1 to 1 | 1000 to 10000 nM |  | CCn1c(-c2cccnc2[C@H](C)OC)c2c3cc(ccc31)-c1csc(n1)C[C@H](NC(=O)[C@H](C(C)C)N(C)C(=O)N1CCC13CN(C)C3)C(=O)N1CCC[C@H](N1)C(=O)OCC(C)(C)C2 [Compound A274] | 
< 0.01 | < 10 nM | < 5000 | CCn1c(-c2cccnc2[C@H](C)OC)c2c3cc(ccc31)-c1csc(n1)C[C@H](NC(=O)[C@H](C(C)C)N(C)C(=O)N1CCN(C(=O)CN(C)C)CC1)C(=O)N1CCC[C@H](N1)C(=O)OCC(C)(C)C2 [Compound A290] | 
> 10 | 1000 to 10000 nM |  | CCn1c(-c2cccnc2[C@H](C)OC)c2c3cc(ccc31)-c1csc(n1)C[C@H](NC(=O)[C@H](C(C)C)N(C)C(=O)N1C[C@H]3CN(C)C[C@H]3C1)C(=O)N1CCC[C@H](N1)C(=O)OCC(C)(C)C2 [Compound A313] | 
0.01 to 0.1 | 100 to 1000 nM | < 5000 | CCn1c(-c2cccnc2[C@H](C)OC)c2c3cc(ccc31)-c1csc(n1)C[C@H](NC(=O)[C@H](C(C)C)N(C)C(=O)N1CCCOCC1)C(=O)N1CCC[C@H](N1)C(=O)OCC(C)(C)C2 [Compound A335] | 
 | 100 to 1000 nM |  | CCn1c(-c2cccnc2[C@H](C)OC)c2c3cc(ccc31)-c1cc(O)cc(c1)C[C@H](NC(=O)[C@H](C(C)C)N(C)C(=O)[C@H]1CCN(C(=O)[C@H]3CCCN3)C1)C(=O)N1CCC[C@H](N1)C(=O)OCC(C)(C)C2 [Compound A378] | IC50 [4]: 1000 to 10000 nM
0.01 to 0.1 | 100 to 1000 nM |  | CCn1c(-c2cccnc2[C@H](C)OC)c2c3cc(ccc31)-c1cc(C#N)cc(c1)C[C@H](NC(=O)[C@H](C(C)C)N(C)C(C)=O)C(=O)N1CCC[C@H](N1)C(=O)OCC(C)(C)C2 [Compound A430] | 
0.01 to 0.1 | 1000 to 10000 nM |  | CCn1c(-c2cccnc2[C@H](C)OC)c2c3cc(ccc31)-c1csc(n1)C[C@H](NC(=O)[C@H](C(C)C)N(C)C(=O)N1CC3(CC(N(C)CCO)C3)C1)C(=O)N1CCC[C@H](N1)C(=O)OCC(C)(C)C2 [Compound A467] | 
< 0.01 | 10 to 100 nM | < 5000 | CCn1c(-c2cccnc2[C@H](C)OC)c2c3cc(ccc31)-c1csc(n1)C[C@H](NC(=O)[C@H](C(C)C)N(C)C(=O)N1CC3(CCN(C)CC3)C1)C(=O)N1CCC[C@H](N1)C(=O)OCC(C)(C)C2 [Compound A513] | 
0.1 to 1 | 100 to 1000 nM |  | CCn1c(-c2cc(N3CCN(C)CC3)cnc2[C@H](C)OC)c2c3cc(ccc31)-c1cccc(c1)C[C@H](NC(=O)[C@H](C(C)C)N(C)C(=O)[C@@H]1OCC[C@@H]1c1ccccc1)C(=O)N1CCC[C@H](N1)C(=O)OCC(C)(C)C2 [Compound A562] | 
0.01 to 0.1 | 100 to 1000 nM |  | CCn1c(-c2cccnc2[C@H](C)OC)c2c3cc(ccc31)-c1csc(n1)C[C@H](NC(=O)[C@H](C(C)C)N(C)C(=O)N1CC(C3CN(C)C3)C1)C(=O)N1CCC[C@H](N1)C(=O)OCC(C)(C)C2 [Compound A608] | 

Structure (SMILES) | IC50 [1, 6] [µM] | IC50 [2] | EC50 [3, 7] [nM] | further results
CCn1c(-c2cccnc2[C@H](C)OC)c2c3cc(ccc31)-c1cc(O)cc(c1)C[C@H](NC(=O)[C@H](C(C)C)N(C)C(=O)C1(N)CC1)C(=O)N1CCC[C@H](N1)C(=O)OCC(C)(C)C2 [Compound A168] |  | 100 to 1000 nM |  | EC50 ([3]; Homo sapiens, NCI-H358, 4 h): < 5000 nM; IC50 ([1]; Homo sapiens, NCI-H358, 120 h, read-out: H358 Cell Viability assay data (K-Ras G12C, IC50, uM), 5-day treatment): 0.01 to 0.1 µM
CCO[C@@H]1c2nc(cs2)-c2ccc3c(c2)c(c(-c2cc([C@H]4CCN5CCOC[C@@H]5C4)cnc2[C@H](C)OC)n3CC)CC(C)(C)COC(=O)[C@@H]2CCCN(N2)C(=O)[C@H]1NC(=O)[C@H]1[C@H](C)[C@@H]1C [Compound A390, (1r,2R,3S)—N-((6^3S,3S,4S,Z)-3-ethoxy-1^1-ethyl-1^2-(2-((S)-1-methoxyethyl)-5-((8R,9aS)-octahydropyrido [2,1-c][1,4]oxazin-8-yl)pyridin-3-yl)-10,10-dimethyl-5,7-dioxo-6^1,6^2,6^3,6^4,6^5,6^6-hexahydro-1^1H-8-oxa-2 (4,2)-thiazola-1 (5,3)-indola-6 (1,3)-pyridazinacycloundecaphane-4-yl)-2,3-dimethylcyclopropane-1-carboxamide] |  | 100 to 1000 nM |  | EC50 ([3]; NCI-H358 cells, 4 hours): < 5000 nM; IC50 ([1]; 5-day treatment, read-out: H358 Cell Viability assay data (K-Ras G12C, IC50)): 0.1 to 1 µM
CCn1c(-c2cccnc2[C@H](C)OC)c2c3cc(ccc31)C1=C[C@@H](O)CN(C1)C[C@H](NC(=O)[C@H]1[C@H](C)[C@@H]1C)C(=O)N1CCC[C@H](N1)C(=O)OCC(C)(C)C2 [Compound A441, (1R,2R,3S)—N-((2^3S,6^3S,4S)-1^1-ethyl-2^3-hydroxy-1^2-(2-((S)-1-methoxyethyl)pyridin-3-yl)-10,10-dimethyl-5,7-dioxo-2^1,2^2,2^3,2^6,6^1,6^2,6^3,6^4,6^5,6^6-decahydro-1^1H-8-oxa-1 (5,3)-indola-6 (1,3)-pyridazina-2 (5,1)-pyridinacycloundecaphane-4-yl)-2,3-dimethylcyclopropane-1-carboxamide] |  | 1000 to 10000 nM |  | IC50 [5]: 100 to 1000 nM; EC50 ([3]; NCI-H358 cells, 4 hours): < 5000 nM
